Here are results for 15 compounds from patent publication US9944654B2, “Nargenicin compounds and uses thereof as antibacterial agents” (priority 2014, dated 2018).

By IC50 is commonly meant the concentration that inhibits the measured activity by half.

Assay [1] deals with T1, S. aureus DnaE (DNA polymerase III α-subunit homolog from Staphylococcus aureus) (Staphylococcus aureus, UniProt Q5HF71).
T1 construct: SaDnaE (S. aureus DnaE residues 1-1065); 6xHis (N); made in house; host or cells: E. coli BL21-AI
T1 sequence (Q5HF71 1-1065): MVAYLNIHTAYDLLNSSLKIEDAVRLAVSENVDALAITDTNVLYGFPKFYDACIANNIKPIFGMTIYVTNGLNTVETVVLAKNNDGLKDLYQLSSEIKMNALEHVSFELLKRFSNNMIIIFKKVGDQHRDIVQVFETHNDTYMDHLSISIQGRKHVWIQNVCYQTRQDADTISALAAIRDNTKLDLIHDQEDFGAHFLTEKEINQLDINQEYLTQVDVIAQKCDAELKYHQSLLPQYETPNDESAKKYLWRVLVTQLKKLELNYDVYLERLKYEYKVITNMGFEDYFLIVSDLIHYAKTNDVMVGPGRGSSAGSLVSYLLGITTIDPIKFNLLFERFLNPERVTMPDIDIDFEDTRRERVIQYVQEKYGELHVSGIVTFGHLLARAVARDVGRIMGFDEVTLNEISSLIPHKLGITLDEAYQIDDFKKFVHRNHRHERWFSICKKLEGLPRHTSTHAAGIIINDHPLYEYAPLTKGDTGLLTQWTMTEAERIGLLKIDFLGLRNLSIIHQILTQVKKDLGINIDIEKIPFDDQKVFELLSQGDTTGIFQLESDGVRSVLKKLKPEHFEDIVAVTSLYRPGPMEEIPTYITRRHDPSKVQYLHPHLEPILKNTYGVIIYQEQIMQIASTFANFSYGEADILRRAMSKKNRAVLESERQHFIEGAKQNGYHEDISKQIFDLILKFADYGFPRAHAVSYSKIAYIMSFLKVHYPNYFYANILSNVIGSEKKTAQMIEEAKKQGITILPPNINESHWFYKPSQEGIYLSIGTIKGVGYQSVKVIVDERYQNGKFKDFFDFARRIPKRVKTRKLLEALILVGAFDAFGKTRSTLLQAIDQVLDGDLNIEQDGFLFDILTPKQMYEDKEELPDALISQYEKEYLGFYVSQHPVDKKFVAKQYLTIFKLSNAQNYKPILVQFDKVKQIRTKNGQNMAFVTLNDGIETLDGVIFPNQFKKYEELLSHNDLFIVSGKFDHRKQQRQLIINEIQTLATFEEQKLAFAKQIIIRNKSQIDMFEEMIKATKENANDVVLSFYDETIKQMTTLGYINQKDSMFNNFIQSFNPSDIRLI
Put plainly: biochemical. The assay is classed as biochemical. In outline:
(§1)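 3H-dTTP (0.011 mM) incorporation into DNase I-activated calf thymus DNA, alongside the other three dNTPs at 0.025 mM, measured by filter counting after TCA precipitation. Reactions ran 30 min at 30° C., started with purified N-His DnaE: 0.8 μg/ml for E. coli, 0.05 μg/ml for S. aureus.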

Assay [2] has as its system Pseudomonas aeruginosa MB5890 (CB1101, efflux-deleted). Put plainly: microbe, parasite or virus in culture. The assay is classed as cell-based. The following applies: Pseudomonas aeruginosa, read-out: P. aeruginosa MB5890 efflux-del (MIC), MHII broth; * = some reduction of growth versus control at […].
For assay [3], the target named is T2, E. coli DnaE (DNA polymerase III α-subunit from Escherichia coli) (Escherichia coli, UniProt P10443).
T2 construct: EcDnaE (E. coli DnaE residues 1-1160); 6xHis (N); made in house; host or cells: E. coli BL21(DE3)
Put plainly: In vitro DnaE single enzyme assay (E. coli). The assay is classed as biochemical. The procedure, abridged: as §1

Assay [4] has as its system Staphylococcus aureus MB6266 (MRSA COL). Put plainly: Nargenicin antibacterial assay (MIC), S. aureus. Type of assay: cell-based. The conditions noted are these: Staphylococcus aureus, MRSA, read-out: S. aureus COL (MIC), MHII broth + 50% human serum; * = some reduction of growth versus control at […].
The subject of assay [5] is Escherichia coli MB5747 (LS 883, tolC). Put plainly: microbe, parasite or virus in culture. The assay is classed as cell-based. The following applies: Escherichia coli, read-out: E. coli LS883 tolC (MIC), MHII broth; * = some reduction of growth versus control at […].
The subject of assay [6] is Streptococcus pneumoniae MB6357 (CL 2883). Put plainly: Nargenicin antibacterial assay (MIC), S. pneumoniae. The following applies: Streptococcus pneumoniae, read-out: S. pneumoniae MB2883 (MIC), Isosensitest broth; * = some reduction of growth versus control at […]. Type of assay: cell-based.
Where [7] appears, read: read-out: E. coli DnaE IC50 (converted).
[8] abbreviates: read-out: S. aureus DnaE IC50 (converted).

SMILES strings stand for the structures. In brackets after ≈: the same amount, converted by molar mass. Read-outs that look alike come from different tables or passages of the source.

T2 sequence (P10443 whole entry, the tested form may be a part): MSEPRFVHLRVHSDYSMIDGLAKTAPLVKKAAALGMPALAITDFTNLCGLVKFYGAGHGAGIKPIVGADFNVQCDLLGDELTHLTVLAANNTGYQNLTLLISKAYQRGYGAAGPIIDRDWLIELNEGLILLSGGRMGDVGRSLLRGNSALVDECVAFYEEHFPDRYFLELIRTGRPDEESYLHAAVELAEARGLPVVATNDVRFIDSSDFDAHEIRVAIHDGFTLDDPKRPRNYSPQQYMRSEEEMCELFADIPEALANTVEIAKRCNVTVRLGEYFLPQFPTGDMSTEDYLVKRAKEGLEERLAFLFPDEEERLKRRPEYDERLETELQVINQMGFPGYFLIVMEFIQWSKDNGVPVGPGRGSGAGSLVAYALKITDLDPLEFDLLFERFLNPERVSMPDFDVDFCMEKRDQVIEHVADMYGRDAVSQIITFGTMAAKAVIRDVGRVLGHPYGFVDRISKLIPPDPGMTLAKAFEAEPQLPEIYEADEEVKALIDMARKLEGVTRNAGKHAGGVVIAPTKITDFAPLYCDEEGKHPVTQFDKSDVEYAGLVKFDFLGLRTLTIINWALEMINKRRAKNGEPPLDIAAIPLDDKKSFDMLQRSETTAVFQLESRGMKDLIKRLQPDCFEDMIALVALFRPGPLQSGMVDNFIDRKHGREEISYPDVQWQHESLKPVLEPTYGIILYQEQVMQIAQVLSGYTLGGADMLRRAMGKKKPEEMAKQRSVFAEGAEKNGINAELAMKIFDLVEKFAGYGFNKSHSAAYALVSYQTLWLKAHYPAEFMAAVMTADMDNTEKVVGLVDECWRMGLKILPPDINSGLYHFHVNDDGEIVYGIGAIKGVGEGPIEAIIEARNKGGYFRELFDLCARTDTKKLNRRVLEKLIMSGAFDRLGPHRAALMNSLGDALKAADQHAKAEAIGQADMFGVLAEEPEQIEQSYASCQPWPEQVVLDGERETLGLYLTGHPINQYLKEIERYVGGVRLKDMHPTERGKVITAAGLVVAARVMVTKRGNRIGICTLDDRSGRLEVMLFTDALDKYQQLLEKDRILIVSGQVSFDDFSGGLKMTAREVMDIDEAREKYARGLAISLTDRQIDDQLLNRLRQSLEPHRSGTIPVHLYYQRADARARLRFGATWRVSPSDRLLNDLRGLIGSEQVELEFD

As to `CO[C@H]1C[C@H]2C=C[C@H]3[C@H]4O[C@]2(/C(C)=C/[C@@H](C)[C@@H]([C@@H](C)OC(N)=O)OC1=O)[C@@H]3[C@H](OC(N)=O)[C@@H](C)[C@H]4OC(=O)c1ccc[nH]1` [Example 4], the IC50 in assay [1] (S. aureus DnaE IC50) is 1.16 µM; in assay [3] (setting [7]), above 166 µM. Moreover, the MIC in assay [2], in assay [4], in assay [5] and in assay [6] was above 128 µg/mL in each case.
For the compound `CO[C@H]1C[C@H]2C=C[C@H]3[C@H]4O[C@]2(/C(C)=C/[C@@H](C)[C@@H]([C@@H](C)OC(=O)NCCN(C)C)OC1=O)[C@@H]3[C@H](O)[C@@H](C)[C@H]4OC(=O)c1ccc[nH]1` [Example 5], the IC50 in assay [1] (setting [8]) was 0.0143 µM; in assay [3] (E. coli DnaE IC50), above 159 µM. Besides, the MIC in assay [2] is above 128 µg/mL; in assay [4], 32 µg/mL; in assay [5], 16 µg/mL (≈ 25.4 µM); in assay [6], above 128 µg/mL.
Take `CO[C@H]1C[C@H]2C=C[C@H]3[C@H]4O[C@]2(/C(C)=C/[C@@H](C)[C@@H]([C@@H](C)OC(=O)NC2CC2)OC1=O)[C@@H]3[C@H](O)[C@@H](C)[C@H]4OC(=O)c1ccc[nH]1` [Example 6]: the IC50 is 0.0184 µM in assay [1] (S. aureus DnaE IC50) and 75.2 µM in assay [3] (setting [7]). Besides, the MIC was above 128 µg/mL in assay [2], 8 µg/mL in assay [4], 4 µg/mL (≈ 6.68 µM) in assay [5] and 128 µg/mL (≈ 214 µM) in assay [6].
As for `CO[C@H]1C[C@H]2C=C[C@H]3[C@H]4O[C@]2(/C(C)=C/[C@@H](C)[C@@H]([C@@H](C)OC(N)=O)OC1=O)[C@@H]3[C@H](O)[C@@H](C)[C@H]4OC(=O)c1ccc[nH]1` [Example 7], the 50% inhibitory concentration (IC50) in assay [1] (S. aureus DnaE IC50) was below 0.0107 µM; in assay [3] (setting [7]) it was 53.7 µM. Also, the MIC in assay [2] is 32 µg/mL (≈ 57.3 µM); in assay [4] it was 4 µg/mL; in assay [5], 2 µg/mL (≈ 3.58 µM); in assay [6], above 128 µg/mL.
On to `CO[C@H]1C[C@H]2C=C[C@H]3[C@H]4O[C@]2(/C(C)=C/[C@@H](C)[C@@H]([C@@H](C)OC(=O)NCCc2ccccc2)OC1=O)[C@@H]3[C@H](O)[C@@H](C)[C@H]4OC(=O)c1ccc[nH]1` [Example 8], for which the IC50 in assay [1] (S. aureus DnaE IC50) was 0.0679 µM; in assay [3] (setting [7]) it was 45.3 µM. Besides, the MIC in assay [2], in assay [4], in assay [5] and in assay [6] was above 128 µg/mL each time.
In the case of `CO[C@H]1C[C@H]2C=C[C@H]3[C@H]4O[C@]2(/C(C)=C/[C@@H](C)[C@@H]([C@@H](C)OC(=O)NC(C)C)OC1=O)[C@@H]3[C@H](O)[C@@H](C)[C@H]4OC(=O)c1ccc[nH]1` [Example 9], the half-inhibitory concentration (IC50) in assay [1] (S. aureus DnaE IC50) was 0.0333 µM; in assay [3] (setting [7]), 49.9 µM. The MIC in assay [2] is above 128 µg/mL; in assay [4], 8 µg/mL; in assay [5] it was 8 µg/mL (≈ 13.3 µM); in assay [6] it was 32 µg/mL (≈ 53.3 µM).
Regarding `CO[C@H]1C[C@H]2C=C[C@H]3[C@H]4O[C@]2(/C(C)=C/[C@@H](C)[C@@H]([C@@H](C)OC(=O)NCc2ccccc2)OC1=O)[C@@H]3[C@H](O)[C@@H](C)[C@H]4OC(=O)c1ccc[nH]1` [Example 10], the figures for the IC50 in assay [1] (S. aureus DnaE IC50) and in assay [3] (setting [7]) were 0.0308 µM and above 154 µM, respectively. Further, the MIC is above 128 µg/mL in assay [2], 8 µg/mL in assay [4], above 128 µg/mL in assay [5] and above 128 µg/mL in assay [6].
Turning to `CO[C@H]1C[C@H]2C=C[C@H]3[C@H]4O[C@]2(/C(C)=C/[C@@H](C)[C@@H]([C@@H](C)OC(=O)NCc2ccncc2)OC1=O)[C@@H]3[C@H](O)[C@@H](C)[C@H]4OC(=O)c1ccc[nH]1` [Example 11], the figures for the IC50 in assay [1] (S. aureus DnaE IC50) and in assay [3] (setting [7]) were 0.0292 µM and 123 µM, respectively. For the same compound, the MIC is above 128 µg/mL in assay [2], 32 µg/mL in assay [4], 16 µg/mL (≈ 24.6 µM) in assay [5] and above 128 µg/mL in assay [6].
With `CO[C@H]1C[C@H]2C=C[C@H]3[C@H]4O[C@]2(/C(C)=C/[C@@H](C)[C@@H]([C@@H](C)OC(=O)NCC(=O)O)OC1=O)[C@@H]3[C@H](O)[C@@H](C)[C@H]4OC(=O)c1ccc[nH]1` [Example 12], the figures for the IC50 in assay [1] (S. aureus DnaE IC50) and in assay [3] (setting [7]) were below 0.00973 µM and 114 µM, respectively. Further, the MIC in assay [2] is above 128 µg/mL; in assay [4], above 128 µg/mL; in assay [5] it was 32 µg/mL (≈ 51.9 µM); in assay [6], above 128 µg/mL.
For `CNS(=O)(=O)CCNC(=O)O[C@H](C)[C@H]1OC(=O)[C@@H](OC)C[C@H]2C=C[C@H]3[C@H]4O[C@]2(/C(C)=C/[C@H]1C)[C@@H]3[C@H](O)[C@@H](C)[C@H]4OC(=O)c1ccc[nH]1` [Example 13], the IC50 in assay [1] (S. aureus DnaE IC50) was below 0.00883 µM; in assay [3] (setting [7]) it was above 147 µM. In addition, the MIC in assay [2] was above 128 µg/mL; in assay [4], 32 µg/mL; in assay [5], 8 µg/mL (≈ 11.8 µM); in assay [6], above 128 µg/mL.
In the case of `CCCCCCCCNC(=O)O[C@H](C)[C@H]1OC(=O)[C@@H](OC)C[C@H]2C=C[C@H]3[C@H]4O[C@]2(/C(C)=C/[C@H]1C)[C@@H]3[C@H](O)[C@@H](C)[C@H]4OC(=O)c1ccc[nH]1` [Example 14], the IC50 in assay [1] (S. aureus DnaE IC50) is 0.119 µM; in assay [3] (setting [7]) it was 16.4 µM. For the same compound, the MIC is above 128 µg/mL in assay [2], above 128 µg/mL in assay [4], above 128 µg/mL in assay [5] and 32 µg/mL (≈ 47.7 µM) in assay [6].
For the compound `CO[C@H]1CC2C=C[C@H]3[C@H]4O[C@]2(/C(C)=C/[C@@H](C)[C@@H]([C@@H](C)OC(=O)NCCO)OC1=O)[C@@H]3[C@H](O)[C@@H](C)[C@H]4OC(=O)c1ccc[nH]1` (stereo partly drawn) [Example 15], the IC50 in assay [1] (S. aureus DnaE IC50) was below 0.00996 µM; in assay [3] (setting [7]) it was around 183 µM. Moreover, the MIC was 128 µg/mL (≈ 212 µM) in assay [2], 8 µg/mL in assay [4], 4 µg/mL (≈ 6.64 µM) in assay [5] and above 128 µg/mL in assay [6].
Consider `CO[C@H]1CC2C=C[C@H]3[C@H]4O[C@]2(/C(C)=C/[C@@H](C)[C@@H]([C@@H](C)OC(=O)NCC(N)=O)OC1=O)[C@@H]3[C@H](O)[C@@H](C)[C@H]4OC(=O)c1ccc[nH]1` (stereo partly drawn) [Example 16], for which the values for the IC50 in assay [1] (setting [8]) and in assay [3] (E. coli DnaE IC50) were below 0.00975 µM and 97.5 µM, respectively. Besides, the MIC was 128 µg/mL (≈ 208 µM) in assay [2], 32 µg/mL in assay [4], 4 µg/mL (≈ 6.5 µM) in assay [5] and above 128 µg/mL in assay [6].
For `CO[C@H]1C[C@H]2C=C[C@H]3[C@H]4O[C@]2(/C(C)=C/[C@@H](C)[C@@H]([C@@H](C)OC(=O)NCc2ccc(O)c(O)c2)OC1=O)[C@@H]3[C@H](O)[C@@H](C)[C@H]4OC(=O)c1ccc[nH]1` [Example 17], the results for the IC50 in assay [1] (S. aureus DnaE IC50) and in assay [3] (setting [7]) were below 0.00881 µM and 22 µM, respectively. For the same compound, the MIC in assay [2] was above 128 µg/mL; in assay [4], 8 µg/mL; in assay [5], 8 µg/mL (≈ 11.8 µM); in assay [6], above 128 µg/mL.
For `CO[C@H]1CC2C=C[C@H]3[C@H]4O[C@]2(/C(C)=C/[C@@H](C)[C@@H]([C@@H](C)OC(=O)NN)OC1=O)[C@@H]3[C@H](O)[C@@H](C)[C@H]4OC(=O)c1ccc[nH]1` (stereo partly drawn) [Example 18], the IC50 in assay [1] (S. aureus DnaE IC50) is below 0.0105 µM; in assay [3] (setting [7]), 105 µM. For the same compound, the MIC was above 128 µg/mL in assay [2], 8 µg/mL in assay [4], 4 µg/mL (≈ 6.97 µM) in assay [5] and 128 µg/mL (≈ 223 µM) in assay [6].
